In patent US10718770B2, “Methods for screening compounds for treating or preventing a viral infection or a virus-related condition” (ABIVAX, priority 2015, dated 2020):

What was measured:
primary macrophages = assay: Cell viability of primary macrophages under treatment; format: cell-based, human; settings: data not shown
[1] = tested on: HIV RNA splicing in infected PBMCs; assay: Sequence capture and 454 pyrosequencing of HIV RNA in infected PBMCs; format: cell-based, HIV-1
Procedure: To test whether Compound 1 influences the splicing of HIV RNA in infected cells, an array-based sequence capture was performed using a customized library probes targeting HIV sequences to get rid of cellular RNA. The probes were used to capture cDNAs prepared from infected treated and untreated PBMCs. After double capture, libraries were prepared and sequenced using 454 pyrosequencing (according to GS junior method manual). The average size of the reads around 400 bp allowed unambiguous assembly of viral genome from untreated sample (after 3 and 6 days of infection) using reads that were not mapped to human genome (hg19). All sequencing data were analysed using gsnap, as detailed in Wu et al. (Fast and SNP-tolerant detection of complex variants and splicing in short reads. Bioinformatics 26, 873-881 (2010)).

HIV-1 strain YU2 = assay: HIV-1 p24 production in infected monocyte derived-macrophages; format: cell-based; settings: Human immunodeficiency virus 1, Primary macrophage, read-out: inhibition levels of virus replication (p24)
Text: FIG. 5. Potency of indole derivatives to inhibit HIV-1 production in PBMC- and macrophages-infected cells. A) HIV-1 strain Ada-MR5 was used to infect triplicate of activated PBMCs from different donors (stimulated for two days with PHA and IL2) in the absence or presence of increasing concentrations of Compound 1. Supernatant was harvested 6 days post-infection (pi) and viral capsid protein p24 antigen was quantitated using standard ELISA protocol. Each point represents 6 donors. B) HIV-1 strain YU2 was used to infect triplicate of monocyte derived-macrophages from different donors in the absence or presence of increasing concentrations of Compound 1. Supernatant was harvested 8 days pi and viral capsid protein p24 antigen was quantitated using standard ELISA protocol. Each point represents 8 donors.
To generate monocyte derived macrophages (MDMs), monocytes were isolated using CD14 microbeads (catalog no. 130-050-201; Miltenyi) and cultured in X-VIVO10 medium (Lonza) supplemented with GM-CSF 1000 U/ml and M-CSF 100 ng/ml for 6 days. Monocytes were seeded at a cell count of 50′000 cells per well in a 96 well plate. After 6 days medium was replaced with X-VIVO10 w/o Cytokines. […]
Cells were treated with 0.01 μM up to 30 μM and p24 antigen levels were monitored in culture supernatant over a 12 day period. […]

## FC(F)(F)Oc1ccc(Nc2ccc3cccc(Cl)c3n2)cc1 [Compound 1, 8-chloro-N-(4-(trifluoromethoxy)phenyl)quinolin-2-amine]
Primary macrophages
  cell viability: not decreased
[1]; 3 days post infection
  coverage of viral genome: 4149 reads
[1]; 3 days post-infection
  fraction of reads corresponding to splice junctions: 17.4%
[1]; 6 days post-infection
  fraction of reads corresponding to splice junctions: 13.3%
  number of reads: 20 585
HIV-1 strain YU2
  inhibition at 0.1 µM: ≤ 90%
